Test results published in US12029751B2, “Therapeutic agent for nervous system disease” (OSAKA UNIVERSITY, priority 2017, dated 2024).

Tested on: rat sciatic nerve crush injury model
Test: Macrophage phenotypes after sciatic nerve injury (immunohistological evaluation, rat sciatic nerve crush injury model)
Format: in vivo
Design: Number of M2 macrophages: unit: per mm^2
Method: Effects of methylcobalamin on macrophage phenotypes after sciatic nerve injury were analyzed by an immunohistological evaluation method. Specifically, the analysis was carried out as follows. Using transverse nerve sections at 2.5 mm in the proximal direction, at the injury site, and at 2.5, 5.0, and 7.5 mm in the distal direction, macrophages were evaluated by immunofluorescence staining at 1, 3, 7, and 14 days after sciatic nerve injury. The proximal direction refers to a cell body side of an axon with respect to an injury site, and the distal direction refers to a terminal side of an axon with respect to an injury site. Each of the distances indicates a distance from the injury site (the same applies to Example 8). Macrophages were labeled with CD68, an M1 marker iNOS, and an M2 marker CD206. The proportion of M1 macrophage was calculated by the following formula: Proportion of M1 macrophage (%)=number of M1-marker positive macrophages per mm^2/number of macrophages per mm^2×100. A more detailed description will be provided below.
Six-week-old male Wistar rats (about 200 g) were used. The left sciatic nerve was exteriorized, and crush injury of the sciatic nerve was made on the proximal side by forceps. The nerve was crushed for 10 seconds three times at 10-second intervals. The fascia and skin were sutured using 3-0 nylon. A non-injury group which underwent only sciatic nerve exposure, an untreated group, and a methylcobalamin treatment group were compared. To administer methylcobalamin continuously, an osmotic minipump was placed and left in the dorsal subcutaneous space, and methylcobalamin was administered at a dose of 1 mg/kg/day. In an untreated group, physiological saline was administered instead of methylcobalamin according to the same procedure.
At 1, 3, 7, and 14 days after the surgery, rats were anesthetized with an anesthetic agent. The left sciatic nerve was collected, fixed with 4% PFA for 7 days and with 20% sucrose for 24 hours, and the fixed nerve was freeze-embedded. The embedded tissue was sliced into a 5-μm-thick slice in a nerve short-axis direction and placed on a glass slide. Slices were obtained from 5 positions of 2.5 mm in the proximal direction from an injured region, the injured region, and 2.5, 5.0, and 7.5 mm in the distal direction. The slices were dried for 1 hour and fixed with 95% methanol for 30 minutes. The fixed slices were blocked and allowed to react with primary antibodies at 4° C. overnight. The cells were further allowed to react with a secondary antibody at room temperature for 1 hour so that the nuclei were labeled with DAPI.
The primary antibodies used were a mouse anti-CD68 monoclonal antibody (Abcam), a rabbit anti-iNOS monoclonal antibody (Abcam), a rabbit anti-CD206 monoclonal antibody (Abeam), a rabbit anti-neurofilament 200 (NF 200) polyclonal antibody (SIGMA), and a mouse anti-myelin basic protein (MBP) monoclonal antibody (Calbiochem). The secondary antibodies used were an Alexa 488-labeled goat anti-mouse IgG antibody (Life Technologies), an Alexa 488-labeled goat anti-rabbit IgG antibody (Life Technologies), an Alexa 568-labeled goat anti-mouse IgG antibody (Life Technologies), and an Alexa 568-labeled goat anti-rabbit IgG antibody (Life Technologies).

[1] = POD1, 2.5 mm in the distal direction, 1 mg/kg/day
[2] = POD1, 2.5 mm in the proximal direction, 1 mg/kg/day
[3] = POD1, 5.0 mm in the distal direction, 1 mg/kg/day
[4] = POD1, 7.5 mm in the distal direction, 1 mg/kg/day
[5] = POD3, 2.5 mm in the distal direction, 1 mg/kg/day
[6] = POD3, 2.5 mm in the proximal direction, 1 mg/kg/day
[7] = POD3, 5.0 mm in the distal direction, 1 mg/kg/day
[8] = POD3, 7.5 mm in the distal direction, 1 mg/kg/day
[9] = POD7, 2.5 mm in the distal direction, 1 mg/kg/day
[10] = POD7, 2.5 mm in the proximal direction, 1 mg/kg/day
[11] = POD7, 5.0 mm in the distal direction, 1 mg/kg/day
[12] = POD7, 7.5 mm in the distal direction, 1 mg/kg/day
[13] = POD14, 2.5 mm in the distal direction, 1 mg/kg/day
[14] = POD14, 2.5 mm in the proximal direction, 1 mg/kg/day
[15] = POD14, 5.0 mm in the distal direction, 1 mg/kg/day
[16] = POD14, 7.5 mm in the distal direction, 1 mg/kg/day
[17] = POD14, Injury site, 1 mg/kg/day

## C/C1=C2/[N-][C@H]([C@H](CC(N)=O)[C@@]2(C)CCC(=O)NC[C@@H](C)OP(=O)([O-])O[C@H]2[C@@H](O)[C@@H](n3cnc4cc(C)c(C)cc43)O[C@@H]2CO)[C@]2(C)N=C(/C(C)=C3N=C(/C=C4N=C1[C@@H](CCC(N)=O)C\4(C)C)[C@@H](CCC(N)=O)[C@]\3(C)CC(N)=O)[C@@H](CCC(N)=O)[C@]2(C)CC(N)=O.[CH3-].[Co+3] [MeCbl, methylcobalamin]
POD1, 2.5 mm in the distal direction
  Number of M2 macrophages: 46.53
[1]
  M1 macrophage ratio: 0.183
  M2 macrophage ratio: 0.658
  Number of M1 macrophages: 10.27 per mm^2
  Number of macrophages: 64.37 per mm^2
POD1, 2.5 mm in the proximal direction
  Number of M2 macrophages: 32.72
[2]
  M1 macrophage ratio: 0.095
  M2 macrophage ratio: 0.743
  Number of M1 macrophages: 3.42 per mm^2
  Number of macrophages: 40.53 per mm^2
POD1, 5.0 mm in the distal direction
  Number of M2 macrophages: 33.90
[3]
  M1 macrophage ratio: 0.109
  M2 macrophage ratio: 0.765
  Number of M1 macrophages: 4.40 per mm^2
  Number of macrophages: 43.67 per mm^2
POD1, 7.5 mm in the distal direction
  Number of M2 macrophages: 32.83
[4]
  M1 macrophage ratio: 0.097
  M2 macrophage ratio: 0.777
  Number of M1 macrophages: 3.21 per mm^2
  Number of macrophages: 35.68 per mm^2
POD1, Injury site
  Number of M2 macrophages: 139.28
POD1, Injury site, 1 mg/kg/day
  M1 macrophage ratio: 0.195
  M2 macrophage ratio: 0.431
  Number of M1 macrophages: 63.55 per mm^2
  Number of macrophages: 336.86 per mm^2
POD3, 2.5 mm in the distal direction
  Number of M2 macrophages: 147.74
[5]
  M1 macrophage ratio: 0.165
  M2 macrophage ratio: 0.693
  Number of M1 macrophages: 23.50 per mm^2
  Number of macrophages: 181.38 per mm^2
POD3, 2.5 mm in the proximal direction
  Number of M2 macrophages: 43.76
[6]
  M1 macrophage ratio: 0.068
  M2 macrophage ratio: 0.708
  Number of M1 macrophages: 3.04 per mm^2
  Number of macrophages: 48.52 per mm^2
POD3, 5.0 mm in the distal direction
  Number of M2 macrophages: 117.16
[7]
  M1 macrophage ratio: 0.145
  M2 macrophage ratio: 0.659
  Number of M1 macrophages: 13.13 per mm^2
  Number of macrophages: 135.88 per mm^2
POD3, 7.5 mm in the distal direction
  Number of M2 macrophages: 115.48
[8]
  M1 macrophage ratio: 0.186
  M2 macrophage ratio: 0.694
  Number of M1 macrophages: 15.57 per mm^2
  Number of macrophages: 124.99 per mm^2
POD3, Injury site
  Number of M2 macrophages: 603.12
POD3, Injury site, 1 mg/kg/day
  M1 macrophage ratio: 0.163
  M2 macrophage ratio: 0.479
  Number of M1 macrophages: 198.96 per mm^2
  Number of macrophages: 1261.77 per mm^2
POD3, Injury site, 1 mg/kg/day, listed as methylcobalamin
  Number of macrophages: significantly decreased
POD7, 2.5 mm in the distal direction
  Number of M2 macrophages: 457.16
[9]
  M1 macrophage ratio: 0.043
  M2 macrophage ratio: 0.463
  Number of M1 macrophages: 37.09 per mm^2
  Number of macrophages: 921.92 per mm^2
POD7, 2.5 mm in the proximal direction
  Number of M2 macrophages: 26.25
[10]
  M1 macrophage ratio: 0.049
  M2 macrophage ratio: 0.642
  Number of M1 macrophages: 1.54 per mm^2
  Number of macrophages: 36.63 per mm^2
POD7, 5.0 mm in the distal direction
  Number of M2 macrophages: 432.13
[11]
  M1 macrophage ratio: 0.039
  M2 macrophage ratio: 0.505
  Number of M1 macrophages: 25.29 per mm^2
  Number of macrophages: 763.17 per mm^2
POD7, 7.5 mm in the distal direction
  Number of M2 macrophages: 327.16
[12]
  M1 macrophage ratio: 0.045
  M2 macrophage ratio: 0.506
  Number of M1 macrophages: 22.71 per mm^2
  Number of macrophages: 584.14 per mm^2
POD7, Injury site
  Number of M2 macrophages: 654.63
POD7, Injury site, 1 mg/kg/day
  M1 macrophage ratio: 0.046
  M2 macrophage ratio: 0.571
  Number of M1 macrophages: 47.56 per mm^2
  Number of macrophages: 1096.37 per mm^2
POD7, Injury site, 1 mg/kg/day, listed as methylcobalamin
  Number of macrophages: significantly decreased
POD14, 2.5 mm in the distal direction
  Number of M2 macrophages: 443.91
[13]
  M1 macrophage ratio: 0.033
  M2 macrophage ratio: 0.459
  Number of M1 macrophages: 27.86 per mm^2
  Number of macrophages: 898.81 per mm^2
POD14, 2.5 mm in the proximal direction
  Number of M2 macrophages: 35.65
[14]
  M1 macrophage ratio: 0.039
  M2 macrophage ratio: 0.638
  Number of M1 macrophages: 2.34 per mm^2
  Number of macrophages: 51.79 per mm^2
POD14, 5.0 mm in the distal direction
  Number of M2 macrophages: 434.68
[15]
  M1 macrophage ratio: 0.029
  M2 macrophage ratio: 0.487
  Number of M1 macrophages: 22.35 per mm^2
  Number of macrophages: 827.51 per mm^2
POD14, 7.5 mm in the distal direction
  Number of M2 macrophages: 417.86
[16]
  M1 macrophage ratio: 0.024
  M2 macrophage ratio: 0.487
  Number of M1 macrophages: 15.59 per mm^2
  Number of macrophages: 752.29 per mm^2
POD14, Injury site
  Number of M2 macrophages: 560.45
[17]
  M1 macrophage ratio: 0.025
  M2 macrophage ratio: 0.610
  Number of M1 macrophages: 21.33 per mm^2
  Number of macrophages: 899.57 per mm^2
POD14, Injury site, 1 mg/kg/day, listed as methylcobalamin
  Number of macrophages: significantly decreased
All evaluation days (1, 3, 7, 14 days), 1 mg/kg/day
  numbers of M1 macrophages as compared to the untreated group: significantly decreased
Distal portions, 7 and 14 days after the surgery, 1 mg/kg/day
  numbers of M1 macrophages as compared to the untreated group: significant differences
Distal positions, 14 days after the surgery, 1 mg/kg/day
  number of macrophages as compared to the untreated group: significant difference
Injury site, 1, 7 and 14 days after the surgery, 1 mg/kg/day
  numbers of M2 macrophages as compared to the untreated group: significantly increased
